This passage reports T/C results from PubChem BioAssay AID256 (DTP/NCI, 2004).

This assay concerns CD2F1 mice, L1210 leukemia ip, survival T/C. In words: NCI In Vivo Anticancer Drug Screen. Data for tumor model L1210 Leukemia (intraperitoneal) in CD2F1 (CDF1) mice. As to conditions: higher = longer survival. The gist of the method: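 In this screen, transplantable tumors were grown in mice given either the compound or its vehicle. Results were expressed as the treated measurement relative to the control measurement.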

Setting [1] is: endpoint: mean survival time, dose: 100.0 mg/kg/injection, schedule: Q01DX001 (ip), vehicle: saline with Tween-80.
The mark [2] stands for this setting: endpoint: mean survival time, dose: 100.0 mg/kg/injection, schedule: Q04DX002 (ip), vehicle: saline with Tween-80.
Where [3] appears, read: endpoint: mean survival time, dose: 200.0 mg/kg/injection, schedule: Q01DX001 (ip), vehicle: saline with Tween-80.
Setting [4] is: endpoint: mean survival time, dose: 200.0 mg/kg/injection, schedule: Q04DX002 (ip), vehicle: saline with Tween-80.
Where [5] appears, read: endpoint: mean survival time, dose: 400.0 mg/kg/injection, schedule: Q01DX001 (ip), vehicle: saline with Tween-80.
[6] abbreviates: endpoint: mean survival time, dose: 400.0 mg/kg/injection, schedule: Q04DX002 (ip), vehicle: saline with Tween-80.
[7] abbreviates: endpoint: mean survival time, dose: 100.0 mg/kg/injection, schedule: Q04DX003 (ip), vehicle: saline with Tween-80.
The mark [8] stands for this setting: endpoint: mean survival time, dose: 200.0 mg/kg/injection, schedule: Q04DX003 (ip), vehicle: saline with Tween-80.
Setting [9] is: endpoint: mean survival time, dose: 400.0 mg/kg/injection, schedule: Q04DX003 (ip), vehicle: saline with Tween-80.
The mark [10] stands for this setting: endpoint: mean survival time, dose: 50.0 mg/kg/injection, schedule: Q01DX009 (ip), vehicle: saline with Tween-80.
The mark [11] stands for this setting: endpoint: mean survival time, dose: 100.0 mg/kg/injection, schedule: Q01DX009 (ip), vehicle: saline with Tween-80.
Setting [12] is: endpoint: mean survival time, dose: 200.0 mg/kg/injection, schedule: Q01DX009 (ip), vehicle: saline with Tween-80.
[13] abbreviates: endpoint: mean survival time, dose: 100.0 mg/kg/injection, schedule: Q04DX003 (ip), vehicle: saline.
Setting [14] is: endpoint: mean survival time, dose: 25.0 mg/kg/injection, schedule: Q04DX003 (ip), vehicle: saline with Tween-80.
The mark [15] stands for this setting: endpoint: mean survival time, dose: 50.0 mg/kg/injection, schedule: Q04DX003 (ip), vehicle: saline with Tween-80.

Structures are written as SMILES. “And” between values parts separate entries of the source, which are not always exact repeats. Equal entries are not always repeated. Inconclusive results and toxic doses are left out.

In the case of `O=C(O)C1=CCCC(O)CC1` (configuration not stated), the T/C under setting [1] was 95 % of control; the T/C under setting [2] was 100 % of control; the T/C under setting [3] was 94 % of control; the T/C under setting [4] is 96 % of control; the T/C under setting [5] is 95 % of control; the T/C under setting [6] is 103 % of control.

For `Nc1cc2c(nnn2C(c2ccccc2)c2ccccc2)c(N)n1`, the T/C is, setting by setting: (endpoint: mean survival time, dose: 100.0 mg/kg/injection, schedule: Q01DX001 (ip), vehicle: carboxymethylcellulose (CMC)) 98 % of control; (endpoint: mean survival time, dose: 200.0 mg/kg/injection, schedule: Q01DX001 (ip), vehicle: carboxymethylcellulose (CMC)) 92 % of control; (endpoint: mean survival time, dose: 400.0 mg/kg/injection, schedule: Q01DX001 (ip), vehicle: carboxymethylcellulose (CMC)) 95 % of control.

With `O=C(c1ccccc1)C(Br)C(C(=O)O)c1ccccc1` (configuration not stated), the T/C reads like this: under setting [7], 101 % of control; under setting [8], 95 % of control; under setting [9], 95 % of control.

Turning to `O=[N+]([O-])c1ccc(O)c(CCl)c1`, the T/C reads like this: (endpoint: mean survival time, dose: 75.0 mg/kg/injection, schedule: Q01DX001 (ip), vehicle: saline) 102 % of control; (endpoint: mean survival time, dose: 150.0 mg/kg/injection, schedule: Q01DX001 (ip), vehicle: saline) 93 % of control; (endpoint: mean survival time, dose: 300.0 mg/kg/injection, schedule: Q01DX001 (ip), vehicle: saline) 96 % of control.

In the case of `FC(F)(F)C1(C(F)(F)F)C/C(=N/Nc2ccccc2)CO1`, the T/C is, setting by setting: (endpoint: mean survival time, dose: 100.0 mg/kg/injection, schedule: Q04DX003 (ip), vehicle: other) 101 % of control; (endpoint: mean survival time, dose: 200.0 mg/kg/injection, schedule: Q04DX003 (ip), vehicle: other) 101 % of control; (endpoint: mean survival time, dose: 400.0 mg/kg/injection, schedule: Q04DX003 (ip), vehicle: other) 101 % of control.

Consider `O[O][Sn][c]1ccccc1`, for which the T/C runs as follows: under setting [10], 93 % of control; under setting [11], 89 % of control; under setting [7], 100 % of control; under setting [12], 91 % of control; under setting [8], 97 % of control.

Take `CCCCNCCCC`: the T/C under setting [13] is 97 % of control.

Regarding `COc1ccccc1NC(=O)Oc1ccc(Cl)cc1C`, the T/C is 103 % of control under setting [2], 100 % of control under setting [4] and 95 % of control under setting [6].

Turning to `O=C(OCCO)c1oc2ccccc2c1OCCO`, the T/C runs as follows: under setting [1], 98 % of control; under setting [3], 98 % of control; under setting [5], 102 % of control.

For `O=C(/C=C/c1ccccc1O)/C=C/c1ccccc1O`, the T/C is, setting by setting: (endpoint: mean survival time, dose: 25.0 mg/kg/injection, schedule: Q01DX009 (ip), vehicle: saline with Tween-80) 107 % of control; under setting [14], 111 % of control; under setting [10], 94 % of control; under setting [15], 101 % of control; under setting [7], 105 % of control.

As to `CC(=O)Nc1cc(Cl)c2ncn(C3OC(CO)C(O)C3O)c2n1` (configuration not stated), the T/C by setting is: (endpoint: mean survival time, dose: 12.5 mg/kg/injection, schedule: Q01DX005 (ip), vehicle: water) 102 % of control; (endpoint: mean survival time, dose: 25.0 mg/kg/injection, schedule: Q01DX005 (ip), vehicle: water) 95 % of control; (endpoint: mean survival time, dose: 50.0 mg/kg/injection, schedule: Q01DX005 (ip), vehicle: water) 102 % of control; (endpoint: mean survival time, dose: 100.0 mg/kg/injection, schedule: Q01DX005 (ip), vehicle: water) 91 % of control; (endpoint: mean survival time, dose: 200.0 mg/kg/injection, schedule: Q01DX005 (ip), vehicle: water) 101 % of control.

`CONC(=O)c1ccccc1N=NN(C)C`: the T/C runs as follows: (endpoint: mean survival time, dose: 18.75 mg/kg/injection, schedule: Q01DX009 (ip), vehicle: Klucel (hydroxypropylcellulose) (HPC)) 117 % of control and 107 % of control; (endpoint: mean survival time, dose: 37.5 mg/kg/injection, schedule: Q01DX009 (ip), vehicle: Klucel (hydroxypropylcellulose) (HPC)) 117 % of control and 109 % of control; (endpoint: mean survival time, dose: 75.0 mg/kg/injection, schedule: Q01DX009 (ip), vehicle: Klucel (hydroxypropylcellulose) (HPC)) 101 % of control.

For `NC(CCSCc1ccccc1)C(=O)O` (configuration not stated), the T/C by setting is: under setting [11], 91 % of control; under setting [7], 98 % of control; under setting [12], 91 % of control; under setting [8], 93 % of control; (endpoint: mean survival time, dose: 400.0 mg/kg/injection, schedule: Q01DX009 (ip), vehicle: saline with Tween-80) 91 % of control; under setting [9], 95 % of control.

On to `Cc1ccc(S(=O)(=O)N/N=C2/CC3CCC(C)(C2)C3)cc1` (configuration not stated), for which the T/C under setting [9] was 94 % of control.

`O=C1CC2C3=C(CCC3)CCN2C2=C1CC(OC(=O)c1ccccc1)CC2` (configuration not stated): the T/C runs as follows: (endpoint: mean survival time, dose: 12.5 mg/kg/injection, schedule: Q04DX003 (ip), vehicle: saline with Tween-80) 90 % of control; under setting [14], 88 % of control; under setting [15], 94 % of control.

On to `Nc1ncc(C2OC(CO)C(O)C2O)c(=O)[nH]1` (configuration not stated), for which the T/C runs as follows: (endpoint: median survival time, dose: 64.0 mg/kg/injection, schedule: Q01DX005 (ip), vehicle: saline) 160 % of control; (endpoint: median survival time, dose: 128.0 mg/kg/injection, schedule: Q01DX005 (ip), vehicle: saline) 162 % of control and 243 % of control; (endpoint: median survival time, dose: 256.0 mg/kg/injection, schedule: Q01DX005 (ip), vehicle: saline) 94 % of control.

Turning to `CCOC(=O)CC1CCCCC1CC(=O)OCC` (configuration not stated), the T/C was 95 % of control (endpoint: mean survival time, dose: 37.5 mg/kg/injection, schedule: Q01DX009 (ip), vehicle: saline); 98 % of control (endpoint: mean survival time, dose: 75.0 mg/kg/injection, schedule: Q01DX009 (ip), vehicle: saline); 97 % of control (endpoint: mean survival time, dose: 75.0 mg/kg/injection, schedule: Q04DX003 (ip), vehicle: saline); 100 % of control (endpoint: mean survival time, dose: 150.0 mg/kg/injection, schedule: Q01DX009 (ip), vehicle: saline); 103 % of control (endpoint: mean survival time, dose: 150.0 mg/kg/injection, schedule: Q04DX003 (ip), vehicle: saline); 101 % of control (endpoint: mean survival time, dose: 300.0 mg/kg/injection, schedule: Q04DX003 (ip), vehicle: saline).

Consider `CC[N+]1(C2CCC3CCC2C3O)CCOCC1` (configuration not stated), for which the T/C runs as follows: (endpoint: mean survival time, dose: 25.0 mg/kg/injection, schedule: Q01DX009 (ip), vehicle: saline) 91 % of control; (endpoint: mean survival time, dose: 25.0 mg/kg/injection, schedule: Q04DX003 (ip), vehicle: saline) 95 % of control; (endpoint: mean survival time, dose: 50.0 mg/kg/injection, schedule: Q01DX009 (ip), vehicle: saline) 94 % of control; (endpoint: mean survival time, dose: 50.0 mg/kg/injection, schedule: Q04DX003 (ip), vehicle: saline) 97 % of control; under setting [1], 100 % of control; (endpoint: mean survival time, dose: 100.0 mg/kg/injection, schedule: Q01DX009 (ip), vehicle: saline) 92 % of control. For the same molecule, the T/C under setting [13] was 100 % of control.

For `CC(=NCc1ccccc1)C(C)(O)c1ccccc1` (configuration not stated), the T/C reads like this: (endpoint: mean survival time, dose: 100.0 mg/kg/injection, schedule: Q01DX001 (ip), vehicle: saline) 107 % of control; (endpoint: mean survival time, dose: 200.0 mg/kg/injection, schedule: Q01DX001 (ip), vehicle: saline) 101 % of control; (endpoint: mean survival time, dose: 400.0 mg/kg/injection, schedule: Q01DX001 (ip), vehicle: saline) 96 % of control.

Consider `CC[CH2][Sn]([Cl])([Cl])[CH2]CC.Oc1ccccc1C=NCCN=Cc1ccccc1O`, for which the T/C (endpoint: mean survival time, dose: 0.62 mg/kg/injection, schedule: Q01DX009 (ip), vehicle: gum acacia) is 100 % of control; the T/C (endpoint: mean survival time, dose: 1.25 mg/kg/injection, schedule: Q01DX009 (ip), vehicle: gum acacia) was 100 % of control; the T/C (endpoint: mean survival time, dose: 2.5 mg/kg/injection, schedule: Q01DX009 (ip), vehicle: gum acacia) is 97 % of control and 103 % of control; the T/C (endpoint: mean survival time, dose: 3.3 mg/kg/injection, schedule: Q01DX009 (ip), vehicle: saline with Tween-80) was 103 % of control; the T/C (endpoint: mean survival time, dose: 5.0 mg/kg/injection, schedule: Q01DX001 (ip), vehicle: saline with Tween-80) is 94 % of control; the T/C (endpoint: mean survival time, dose: 5.0 mg/kg/injection, schedule: Q01DX009 (ip), vehicle: gum acacia) is 104 % of control and 108 % of control. The T/C reads like this: (endpoint: mean survival time, dose: 5.0 mg/kg/injection, schedule: Q01DX009 (ip), vehicle: saline with Tween-80) 92 % of control; (endpoint: mean survival time, dose: 7.5 mg/kg/injection, schedule: Q01DX009 (ip), vehicle: saline with Tween-80) 95 % of control; (endpoint: mean survival time, dose: 10.0 mg/kg/injection, schedule: Q01DX001 (ip), vehicle: saline with Tween-80) 95 % of control; (endpoint: mean survival time, dose: 20.0 mg/kg/injection, schedule: Q01DX001 (ip), vehicle: saline with Tween-80) 96 % of control.
